Read-outs that look alike come from different tables or passages of the source.
Experiments:
HIV-1 IN = target: T1, HIV-1 IN (Human immunodeficiency virus type 1 group M subtype B, UniProt P12497); experiment: In vitro IN inhibition assay (3’-processing and strand transfer); type: biochemical; details: for IC50: Mn2+ cofactor (7.5 mM MnCl2)
T1 construct: pre-incubated with purified recombinant IN (at a final concentration of 200 nM); made in house
Description: (§1) All compounds were dissolved in DMSO to a final stock concentration of 10 mM and stored at −20 °C. Initial screening for IN inhibitory effect was done at 100 μM and dilutions were made in DMSO. Compounds showing at least 50% inhibition at 100 μM were selected for IC50 determinations. γ-[^32P]-ATP was purchased from Perkin Elmer (Waltham, MA, USA). The expression system for wild-type IN was a generous gift of Dr. Robert Craigie, Laboratory of Molecular Biology, NIDDK, NIH (Bethesda, MD, USA). His-tagged APE1 was purified from an expression system kindly provided by Dr. Tom Curran, Department of Developmental Neurobiology, St. Jude Children’s Research Hospital (Memphis, TN, USA).
(§2) 21-mer oligonucleotides used in IN inhibition assay [21top (5’-[…]-3’) and 21bot (5’-ACTGCTAGAGATTTTCCA CAC-3’)] were purchased from Integrated DNA Technologies (Coralville, IA, USA) and purified by UV shadowing on polyacrylamide gel. The oligonucleotides used in APE1 inhibition assay [top strand: 5′-ATTTCACCGGTACG(F)TCTAGAATC CG-3′ containing the tetrahydrofuran synthetic abasic residue (F), and bottom strand: 3′-TAAAGTGG CCATGC(C)AGATCTTAGGC-5′] were purchased from The Midland Certified Reagent Company (Midland, TX, USA). To analyze the extent of 3’-processing and strand transfer with 5’-end labeled substrates, 21top was 5’-end labeled using T4 polynucleotide kinase (Epicentre, Madison, WI, USA) and [γ-^32P]-ATP (Perkin Elmer, Waltham, MA, USA). The kinase was heat-inactivated at 95 °C and 21bot was added in […]. The reaction mixture was allowed to cool slowly to room temperature, and purified through a spin-25 minicolumn (USA Scientific, Ocala, FL, USA) to separate annealed double-stranded oligonucleotide from unincorporated material. The oligonucleotides used in the APE1 inhibition assay were labeled using a similar protocol.
To determine the extent of 3’-processing and strand transfer, the test compounds, diluted in DMSO, were pre-incubated with purified recombinant IN (at a final concentration of 200 nM) in the reaction buffer [50 mM NaCl, 1 mM HEPES (pH 7.5), 50 μM EDTA, 50 μM dithiothreitol, 10% glycerol (w/v), 7.5 mM MnCl2, 0.1 mg mL–1 bovine serum albumin, 10 mM 2-mercaptoethanol, 10% dimethyl sulfoxide, and 25 mM MOPS (pH 7.2)] at 30 °C for 30 min. For Mg^2+ assay, 7.5 mM MgCl2 was substituted for MnCl2 and an optimal concentration of PEG was included in the reaction buffer. Following the pre-incubation, 20 nM of the 5’-end ^32P-labeled linear oligonucleotide substrate was added to the reaction mixture and incubated for an additional 1 h. Reactions were quenched by addition of 50X loading dye (98% deionized formamide, 10 mM EDTA, 0.025% xylene cyanol, and 0.025 % bromophenol blue). An aliquot was subjected to electrophoresis on a denaturing polyacrylamide gel (0.09 M tris–borate, pH 8.3, 2 mM EDTA, 20% acrylamide, 8M urea). Gels were dried under vacuum, exposed in a PhosphorImager cassette and visualized with a Typhoon 8610 Variable Mode Imager (Amersham Biosciences). Quantification was done with Image Quant 5.2 software. Percent inhibition (%I) was calculated using the following equation: %I = 100 × [1 − (D − C) / (N − C)] where C, N, and D are the fractions of 21-mer substrate converted into 19-mer (product of 3’-processing) or strand-transfer products for DNA alone, DNA plus IN, and DNA, IN plus test compound, respectively. IC50 values were determined by plotting the logarithm of test compound concentrations as a function of %I to obtain the concentration that produced 50% inhibition.

[1] = target: T2, human apurinic/apyrimidinic endonuclease 1 (APE1) (Homo sapiens, UniProt P27695); experiment: APE1 inhibition assay; type: biochemical; details: read-out: Inhibition of APE1 catalytic activity IC50
T2 construct: His; made in house
Description: as §1, §2
APE1 inhibition assay was performed as previously described. To determine the extent of endonucleolytic cleavage of the abasic residue, the test compounds, diluted in DMSO, were preincubated with recombinant APE1 at a final concentration of 0.05 nM in the reaction buffer [50 mM NaCl, 1 mM HEPES, pH 7.5, 50 μM EDTA, 50 μM dithiothreitol, 10% glycerol (w/v), 7.5 mM MnCl2, 0.1 mg mL‑1 bovine serum albumin, 10 mM 2-mercaptoethanol, 10% DMSO, and 25 mM MOPS, pH 7.2] at 30 °C for 10 min. Following preincubation, 200 nM of the 5′-end ^32P-labeled linear oligonucleotide substrate was added, and incubated for an additional 10 minutes. Reactions were quenched by the addition of an equal volume (16 μL) of loading dye (98% deionized formamide, 10 mM EDTA, 0.025% xylene cyanol, and 0.025% bromophenol blue). An aliquot (5 μL) was electrophoresed on a denaturing 20% polyacrylamide gel (0.09 M tris-borate pH 8.3, 2 mM EDTA, 20% acrylamide, 8 M urea). The gels were dried, exposed in a PhosphorImager cassette and analyzed using a Typhoon 8610 Variable Mode Imager (Amersham Biosciences). Quantification of enzyme inhibition was done using Image Quant 5.2 software. The percent inhibition (% I) was calculated using the following equation: %I = 100 × [1 − (D − C) / (N − C)] where C, N, and D are the fractions of 26-mer substrate converted to 13-mer incision products (or integration products) for DNA alone, DNA plus APE1, and DNA, APE1 plus test compound, respectively. IC50 values were determined by plotting the logarithm of compound concentration as a function of %I to obtain the concentration that produced 50% inhibition. An optimum concentration of APE1 enzyme, at which there is complete conversion of the synthetic abasic-site containing oligonucleotide substrate to its cleaved product without subsequent exonuclease activity, was used in the assay.

[2] = read-out: Inhibition of IN catalytic activity IC50, 3’-Processing
[3] = read-out: Inhibition of IN catalytic activity IC50, Strand Transfer

T2 sequence (P27695 whole entry): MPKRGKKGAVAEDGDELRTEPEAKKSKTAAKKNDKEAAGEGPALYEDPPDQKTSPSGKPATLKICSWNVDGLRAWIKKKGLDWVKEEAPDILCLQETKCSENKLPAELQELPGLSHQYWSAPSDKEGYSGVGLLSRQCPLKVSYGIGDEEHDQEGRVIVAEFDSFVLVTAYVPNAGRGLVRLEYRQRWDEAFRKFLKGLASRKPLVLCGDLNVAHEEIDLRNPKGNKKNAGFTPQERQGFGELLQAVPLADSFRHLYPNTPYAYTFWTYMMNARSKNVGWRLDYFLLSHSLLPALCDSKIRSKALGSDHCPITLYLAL

SMILES | IC50 (HIV-1 IN; [2]) [µM] | IC50 (HIV-1 IN; [3]) [µM] | IC50 [1] [µM] | melting point [°C] | IN inhibition (in words) (HIV-1 IN; highest concentration tested 100 μM) | decrease in potency relative to 53 (HIV-1 IN; IN inhibition, trimethoxy versus p-hydroxyl in ring A) [fold]
COc1cc(NC(=O)C(=S)NN2C(=O)C(=Cc3cccc([N+](=O)[O-])c3O)SC2=S)cc(OC)c1OC [Compound 29, 2-{[5-(2-Hydroxy-3-nitrobenzylidene)-4-oxo-2-thioxo-1,3-thiazolidin-3-yl]amino}-2-thioxo-N-(3,4,5-trimethoxyphenyl)acetamide] | 74 ± 18 | 72 ± 23 | > 100 | 193 to 194 |  | 
COc1cc(NC(=O)C(=S)NN2C(=O)C(=Cc3cc([N+](=O)[O-])ccc3O)SC2=S)cc(OC)c1OC [Compound 30, 2-{[5-(2-Hydroxy-5-nitrobenzylidene)-4-oxo-2-thioxo-1,3-thiazolidin-3-yl]amino}-2-thioxo-N-(3,4,5-trimethoxyphenyl)acetamide] | 47 ± 30 | > 100 | > 100 | 205 to 206 |  | 
CCOc1cccc(C=C2SC(=S)N(NC(=S)C(=O)Nc3cc(OC)c(OC)c(OC)c3)C2=O)c1O [Compound 31, 2-{[5-(3-Ethoxy-2-hydroxybenzylidene)-4-oxo-2-thioxo-1,3-thiazolidin-3-yl]amino}-2-thioxo-N-(3,4,5-trimethoxyphenyl)acetamide] | > 100 | > 100 | > 100 | 231 to 232 |  | 
C=CCc1cccc(C=C2SC(=S)N(NC(=S)C(=O)Nc3cc(OC)c(OC)c(OC)c3)C2=O)c1O [Compound 32, 2-{[5-(3-Allyl-2-hydroxybenzylidene)-4-oxo-2-thioxo-1,3-thiazolidin-3-yl]amino}-2-thioxo-N-(3,4,5-trimethoxyphenyl)acetamide] | 82 ± 5 | 83 ± 3 | > 100 | 174 to 175 |  | 
CCN(CC)c1ccc(C=C2SC(=S)N(NC(=S)C(=O)Nc3cc(OC)c(OC)c(OC)c3)C2=O)c(O)c1 [Compound 33, 2-({5-[4-(Diethylamino)-2-hydroxybenzylidene]-4-oxo-2-thioxo-1,3-thiazolidin-3-yl}amino)-2-thioxo-N-(3,4,5-trimethoxyphenyl)acetamide] | > 100 | > 100 | > 100 | 210 to 211 |  | 
COc1cc(NC(=O)C(=S)NN2C(=O)C(=Cc3cc(N=Nc4ccccc4)ccc3O)SC2=S)cc(OC)c1OC [Compound 34, 2-[(5-{2-Hydroxy-5-[phenyldiazenyl]benzylidene}-4-oxo-2-thioxo-1,3-thiazolidin-3-yl)amino]-2-thioxo-N-(3,4,5-trimethoxyphenyl)acetamide] | 33 ± 19 | 26 ± 14 | > 100 | 149 to 150 |  | 
COc1cc(NC(=O)C(=S)NN2C(=O)/C(=C\c3ccc(O)c(C(=O)O)c3)SC2=S)cc(OC)c1OC [Compound 35] | 45 ± 24 | 61 ± 11 | > 100 | 239 to 240 | only a moderate effect | 
COc1cc(NC(=O)C(=S)NN2C(=O)C(=Cc3cc(Cl)cc(Cl)c3O)SC2=S)cc(OC)c1OC [Compound 36, 2-{[5-(3,5-Dichloro-2-hydroxybenzylidene)-4-oxo-2-thioxo-1,3-thiazolidin-3-yl]amino}-2-thioxo-N-(3,4,5-trimethoxyphenyl)acetamide] | 46 ± 5 | > 100 | > 100 | 215 to 216 |  | 
COc1cc(NC(=O)C(=S)NN2C(=O)C(=Cc3cc(Br)cc(Br)c3O)SC2=S)cc(OC)c1OC [Compound 37, 2-{[5-(3,5-Dibromo-2-hydroxybenzylidene)-4-oxo-2-thioxo-1,3-thiazolidin-3-yl]amino}-2-thioxo-N-(3,4,5-trimethoxyphenyl)acetamide] | 33 ± 7 | 35 ± 6 | > 100 | 221 to 222 |  | 
COc1cc(NC(=O)C(=S)NN2C(=O)C(=Cc3cc(I)cc(I)c3O)SC2=S)cc(OC)c1OC [Compound 39, 2-{[5-(2-Hydroxy-3,5-diiodobenzylidene)-4-oxo-2-thioxo-1,3-thiazolidin-3-yl]amino}-N-(3,4,5-trimethoxyphenyl)-2-thioxoacetamide] | 47 ± 20 | 31 ± 16 | > 100 | 235 to 236 |  | 10
O=C(Nc1ccc(O)cc1)C(=S)NN1C(=O)C(=Cc2cc(Cl)ccc2O)SC1=S [Compound 41, 2-{[5-(5-Chloro-2-hydroxybenzylidene)-4-oxo-2-thioxo-1,3-thiazolidin-3-yl]amino}-N-(4-hydroxy-phenyl)-2-thioxoacetamide] | > 100 | 67 | > 100 | 220 to 221 |  | 
O=C(Nc1ccc(O)cc1)C(=S)NN1C(=O)C(=Cc2cc(Br)ccc2O)SC1=S [Compound 42, 2-{[5-(5-Bromo-2-hydroxybenzylidene)-4-oxo-2-thioxo-1,3-thiazolidin-3-yl]amino}-N-(4-hydroxy-phenyl)-2-thioxoacetamide] | > 100 | > 100 | > 100 | 190 to 191 |  | 
O=C(Nc1ccc(O)cc1)C(=S)NN1C(=O)C(=Cc2cccc([N+](=O)[O-])c2O)SC1=S [Compound 43, 2-{[5-(2-Hydroxy-3-nitrobenzylidene)-4-oxo-2-thioxo-1,3-thiazolidin-3-yl]amino}-N-(4-hydroxy-phenyl)-2-thioxoacetamide] | > 100 | 88 | > 100 | 179 to 180 |  | 
O=C(Nc1ccc(O)cc1)C(=S)NN1C(=O)C(=Cc2cc([N+](=O)[O-])ccc2O)SC1=S [Compound 44, 2-{[5-(2-Hydroxy-5-nitrobenzylidene)-4-oxo-2-thioxo-1,3-thiazolidin-3-yl]amino}-N-(4-hydroxy-phenyl)-2-thioxoacetamide] | 53 ± 8 | 45 ± 14 | > 100 | 199 to 200 |  | 
